# Laboratory results taken from US9580416B2, “Inhibitors of Bruton's tyrosine kinase” (PHARMACYCLICS LLC, priority 2014, dated 2017).
# Assays:
# Type in all cases: biochemical
# Lck = Lck (Homo sapiens, UniProt P06239); assay: Lck kinase activity, TR-FRET assay; details: read-out: LCK (IC50)
# Procedure: (§1) Btk kinase activity is determined using a time-resolved fluorescence resonance energy transfer (TR-FRET) methodology. Measurements are performed in a reaction volume of 50 μL using 96-well assay plates. Kinase enzyme, inhibitor, ATP (at the Km for the kinase), and 1 […] (Biotin-AVLESEEELYSSARQ-NH2) are incubated in a reaction buffer composed of 20 mM Tris, 50 mM NaCl, MgCl2 (5-25 mM depending on the kinase), MnCl2 (0-10 mM), 1 mM DTT, 0.1 mM EDTA, 0.01% bovine serum albumin, 0.005% Tween-20, and 10% DMSO at pH 7.4 for one hour. The reaction is quenched by the addition of 1.2 equivalents of EDTA (relative to divalent cation) in 25 μL of 1× Lance buffer (Perkin-Elmer). Streptavidin-APC (Perkin-Elmer) and Eu-labeled p-Tyr100 antibody (Perkin-Elmer) in 1× Lance buffer are added in a 25 μL volume to give final concentrations of 100 nM and 2.5 nM, respectively, and the mixture is allowed to incubate for one hour. The TR-FRET signal is measured on a multimode plate reader with an excitation wavelength (λEx) of 330 nm and detection wavelengths (λEm) of 615 and 665 nm. Activity is determined by the ratio of the fluorescence at 665 nm to that at 615 nm. For each compound, enzyme activity is measured at various concentrations of compound. Negative control reactions are performed in the absence of inhibitor in replicates of six, and two no-enzyme controls are used to determine baseline fluorescence levels. Inhibition constants, Ki(app), ware obtained using the program BatchKi (Kuzmic et al. (2000), Anal. Biochem. 286:45-50). IC50s are obtained according to the equation: IC50={Ki(app)/(1+[ATP]/Km^ATP)}+[E]total/2;
# (§2) For all kinases, [ATP]=Km^ATP, [Btk]total=0.5 nM and [Lck]total=6 nM.
# EGFR = EGFR (Homo sapiens, UniProt P00533); assay: Inhibition of a panel of kinases, in vitro HotSpot kinase assay: EGFR
# EGFR, sequence (P00533 25-1210): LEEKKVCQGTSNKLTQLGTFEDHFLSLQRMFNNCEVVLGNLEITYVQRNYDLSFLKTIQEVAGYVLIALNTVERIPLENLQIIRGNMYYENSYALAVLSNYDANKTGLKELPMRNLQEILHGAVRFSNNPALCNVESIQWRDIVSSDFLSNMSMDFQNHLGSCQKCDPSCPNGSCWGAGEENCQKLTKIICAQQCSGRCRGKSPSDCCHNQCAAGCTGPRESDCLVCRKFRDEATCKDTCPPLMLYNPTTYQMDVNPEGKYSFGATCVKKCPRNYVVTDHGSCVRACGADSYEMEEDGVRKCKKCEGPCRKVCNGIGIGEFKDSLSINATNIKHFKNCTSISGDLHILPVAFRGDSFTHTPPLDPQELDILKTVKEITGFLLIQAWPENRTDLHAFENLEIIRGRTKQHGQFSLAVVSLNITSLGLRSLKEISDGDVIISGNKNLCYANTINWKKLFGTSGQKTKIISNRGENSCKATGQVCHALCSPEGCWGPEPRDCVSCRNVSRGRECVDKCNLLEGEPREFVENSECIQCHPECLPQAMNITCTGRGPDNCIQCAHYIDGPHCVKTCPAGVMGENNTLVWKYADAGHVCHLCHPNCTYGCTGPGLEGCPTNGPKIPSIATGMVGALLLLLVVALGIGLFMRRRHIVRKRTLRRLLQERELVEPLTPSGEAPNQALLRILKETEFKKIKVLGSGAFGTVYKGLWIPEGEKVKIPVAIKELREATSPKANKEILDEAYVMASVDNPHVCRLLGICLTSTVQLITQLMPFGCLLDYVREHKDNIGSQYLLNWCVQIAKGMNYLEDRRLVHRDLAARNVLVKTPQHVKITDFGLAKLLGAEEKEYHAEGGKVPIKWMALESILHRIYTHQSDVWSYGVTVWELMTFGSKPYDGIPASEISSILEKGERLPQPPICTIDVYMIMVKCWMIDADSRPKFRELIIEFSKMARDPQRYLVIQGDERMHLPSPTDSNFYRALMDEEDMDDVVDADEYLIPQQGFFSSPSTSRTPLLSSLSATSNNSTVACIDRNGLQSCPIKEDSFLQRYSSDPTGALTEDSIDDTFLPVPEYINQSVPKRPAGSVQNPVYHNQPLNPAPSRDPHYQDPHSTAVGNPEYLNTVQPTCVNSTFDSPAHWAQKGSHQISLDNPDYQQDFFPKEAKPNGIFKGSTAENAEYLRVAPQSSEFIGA
# Procedure: The degree of inhibition of a panel of kinases is determined using the in vitro HotSpot kinase assay (purified enzymes, ^33P-ATP, an appropriate substrate and 1 uM ATP).
# Btk = Btk (Homo sapiens, UniProt Q06187); assay: Btk kinase activity, TR-FRET assay; details: read-out: Btk (IC50)
# Btk, sequence (Q06187 whole entry): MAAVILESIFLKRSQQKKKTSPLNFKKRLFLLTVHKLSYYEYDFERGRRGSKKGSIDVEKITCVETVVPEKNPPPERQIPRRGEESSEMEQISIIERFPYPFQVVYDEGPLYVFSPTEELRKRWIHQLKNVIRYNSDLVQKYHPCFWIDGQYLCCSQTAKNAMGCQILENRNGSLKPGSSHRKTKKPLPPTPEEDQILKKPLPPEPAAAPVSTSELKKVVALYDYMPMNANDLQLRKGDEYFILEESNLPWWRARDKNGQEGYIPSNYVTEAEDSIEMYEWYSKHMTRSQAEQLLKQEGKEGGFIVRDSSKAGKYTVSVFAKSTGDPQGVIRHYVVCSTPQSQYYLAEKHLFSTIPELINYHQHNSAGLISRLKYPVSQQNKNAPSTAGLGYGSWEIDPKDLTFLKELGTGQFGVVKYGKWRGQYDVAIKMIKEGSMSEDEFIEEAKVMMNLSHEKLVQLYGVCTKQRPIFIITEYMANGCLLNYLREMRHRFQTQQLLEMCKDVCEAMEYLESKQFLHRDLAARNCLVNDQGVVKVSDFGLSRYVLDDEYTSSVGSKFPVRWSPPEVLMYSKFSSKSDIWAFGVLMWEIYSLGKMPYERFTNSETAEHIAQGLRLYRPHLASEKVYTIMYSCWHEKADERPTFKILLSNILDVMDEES
# Procedure: as §1, §2
# Lck, sequence (P06239 whole entry, species assumed): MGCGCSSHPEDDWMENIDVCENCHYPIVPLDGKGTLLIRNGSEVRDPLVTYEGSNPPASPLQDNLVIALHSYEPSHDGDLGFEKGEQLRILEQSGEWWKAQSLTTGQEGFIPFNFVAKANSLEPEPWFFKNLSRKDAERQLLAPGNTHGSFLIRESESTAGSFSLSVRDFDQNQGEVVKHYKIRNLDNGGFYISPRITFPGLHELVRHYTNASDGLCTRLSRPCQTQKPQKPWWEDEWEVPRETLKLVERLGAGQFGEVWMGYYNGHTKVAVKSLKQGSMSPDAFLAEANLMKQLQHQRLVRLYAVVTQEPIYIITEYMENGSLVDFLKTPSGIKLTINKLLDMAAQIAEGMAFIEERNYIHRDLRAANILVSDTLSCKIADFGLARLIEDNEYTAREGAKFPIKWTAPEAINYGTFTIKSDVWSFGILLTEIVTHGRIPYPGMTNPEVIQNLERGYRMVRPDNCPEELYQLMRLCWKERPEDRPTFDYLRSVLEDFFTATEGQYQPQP
IC50 (Lck) [µM],IC50 (EGFR) [µM],IC50 (Btk) [µM],Structure (SMILES)
> 10,1 to 10,0.1 to 1,Cc1cnc(NC(=O)c2ccc(Oc3ccnc4[nH]nc(C5CCCN(C(=O)C6CC6)C5)c34)cc2)s1 (stereo not shown) [compound 193]
0.1 to 1,,< 0.1,"N#Cc1ccnc(NC(=O)c2ccc(Oc3ccnc4[nH]nc(N[C@H]5CC[C@H](O)CC5)c34)cc2)c1 [compound 82, N-(4-cyanopyridin-2-yl)-4-[(3-{[(R,4R)-4-hydroxycyclohexyl]amino}-1H-pyrazolo[3,4-b]pyridin-4-yl)oxy]benzamide]"
0.1 to 1,,< 0.1,"CC1(C(=O)N2CCC[C@@H](Nc3n[nH]c4nccc(Oc5ccc(C(=O)Nc6cc(C#N)ccn6)cc5)c34)C2)COC1 [compound 83, N-(4-cyanopyridin-2-yl)-4-[(3-{[(3R)-1-(3-methyloxetane-3-carbonyl)piperidin-3-yl]amino}-1H-pyrazolo[3,4-b]pyridin-4-yl)oxy]benzamide]"
,,0.1 to 1,"Cc1cc(NC(=O)c2cccc(Oc3ccnc4[nH]nc(N[C@@H]5CCNC5)c34)c2)ccc1C(C)C [compound 249, (R)—N-(4-isopropyl-3-methylphenyl)-3-(3-(pyrrolidin-3-ylamino)-1H-pyrazolo[3,4-b]pyridin-4-yloxy)benzamide]"
,,< 0.1,"C=CC(=O)N1CCC(CNc2n[nH]c3nccc(Oc4ccc(Oc5ccccc5)cc4)c23)CC1 [compound 266, 1-(4-((4-(4-phenoxyphenoxy)-1H-pyrazolo[3,4-b]pyridin-3-ylamino)methyl)piperidin-1-yl)prop-2-en-1-one]"
,,0.1 to 1,"C=CC(=O)N1CCC[C@@H](Nc2n[nH]c3nccc(Oc4ccc(-c5nc6ncccc6o5)cc4)c23)C1 [compound 213, 1-[(3R)-3-{[4-(4-{[1,3]oxazolo[4,5-b]pyridin-2-yl}phenoxy)-1H-pyrazolo[3,4-b]pyridin-3-yl]amino}piperidin-1-yl]prop-2-en-1-one]"
,,0.1 to 1,"c1ccc(Oc2ccc(Oc3ccnc4[nH]nc(NCC5CCNCC5)c34)cc2)cc1 [compound 262, 4-(4-phenoxyphenoxy)-N-(piperidin-4-ylmethyl)-1H-pyrazolo[3,4-b]pyridin-3-amine]"
,,> 10,Cc1cnc(NC(=O)[C@H]2CC[C@H](Oc3ccnc4[nH]nc(N[C@@H]5CCCN(C(=O)/C=C/CN(C)C6CC6)C5)c34)CC2)s1 [compound 152]
,,> 10,CCNC(=O)Nc1ccc(Oc2ccnc3[nH]nc(N[C@@H]4CCCN(C(=O)/C=C/CN(C)C5CC5)C4)c23)cc1 [compound 136]
,,0.1 to 1,"Cc1cc(NC(=O)c2cccc(Nc3ccnc4[nH]nc(O[C@@H]5CCCNC5)c34)c2)ccc1C(C)C [compound 259, (R)—N-(4-isopropyl-3-methylphenyl)-3-(3-(piperidin-3-yloxy)-1H-pyrazolo[3,4-b]pyridin-4-ylamino)benzamide]"
0.1 to 1,,< 0.1,"CC1(C(=O)N2CCC[C@@H](Nc3n[nH]c4nccc(Oc5ccc(C(=O)Nc6cc(C(F)(F)F)ccn6)cc5)c34)C2)COC1 [compound 84, 4-[(3-{[(3R)-1-(3-methyloxetane-3-carbonyl)piperidin-3-yl]amino}-1H-pyrazolo[3,4-b]pyridin-4-yl)oxy]-N-[4-(trifluoromethyl)pyridin-2-yl]benzamide]"
,,0.1 to 1,"Cc1cc(NC(=O)c2cccc(Nc3ccnc4[nH]nc(N[C@@H]5CCCNC5)c34)c2)ccc1C(C)C [compound 253, (R)—N-(4-isopropyl-3-methylphenyl)-3-(3-(piperidin-3-ylamino)-1H-pyrazolo[3,4-b]pyridin-4-ylamino)benzamide]"
,,0.1 to 1,"O=C(c1cccc(Oc2ccnc3[nH]nc(N[C@@H]4CCCNC4)c23)c1)N1CCOCC1 [compound 256, (R)-morpholino(3-(3-(piperidin-3-ylamino)-1H-pyrazolo[3,4-b]pyridin-4-yloxy)phenyl)methanone]"
,,> 10,"CC#CC(=O)N1CCC[C@@H](Nc2n[nH]c3nccc(Oc4ccc(-c5ccc(C(F)(F)F)cn5)cc4)c23)C1 [compound 206, 1-[(3R)-3-[(4-{4-[5-(trifluoromethyl)pyridin-2-yl]phenoxy}-1H-pyrazolo[3,4-b]pyridin-3-yl)amino]piperidin-1-yl]but-2-yn-1-one]"

# Second part, the compound before the results:
Structure (SMILES),IC50 (Lck) [µM],IC50 (EGFR) [µM],IC50 (Btk) [µM]
"CCOC(=O)N1CCC[C@@H](Nc2n[nH]c3nccc(Oc4ccc(C(=O)Nc5cc(C#N)ccn5)cc4)c23)C1 [compound 78, ethyl (3R)-3-[(4-{4-[(4-cyanopyridin-2-yl)carbamoyl]phenoxy}-1H-pyrazolo[3,4-b]pyridin-3-yl)amino]piperidine-1-carboxylate]",0.1 to 1,1 to 10,< 0.1
CN(C/C=C/C(=O)N1CC[C@@H](Nc2n[nH]c3nccc(Oc4ccc(C(=O)Nc5ccccn5)cc4)c23)C1)C1CC1 [compound 55],1 to 10,> 10,< 0.1
"CN(C)C/C=C/C(=O)N1CC[C@@H](Nc2n[nH]c3nccc(Oc4ccc(-c5ncco5)c(Cl)c4)c23)C1 [compound 16, (2E)-1-[(3R)-3-({4-[3-chloro-4-(1,3-oxazol-2-yl)phenoxy]-1H-pyrazolo[3,4-b]pyridin-3-yl}amino)pyrrolidin-1-yl]-4-(dimethylamino)but-2-en-1-one]",1 to 10,1 to 10,0.1 to 1
"N#C/C(=C\c1ccccc1)C(=O)N1CC[C@@H](Nc2n[nH]c3nccc(Oc4ccc(Oc5ccccc5)cc4)c23)C1 [compound 19, (2E)-2-[(E)-(3R)-3-{[4-(4-phenoxyphenoxy)-1H-pyrazolo[3,4-b]pyridin-3-yl]amino}pyrrolidine-1-carbonyl]-3-phenylprop-2-enenitrile]",0.1 to 1,0.1 to 1,< 0.1
"CN(C)C/C=C/C(=O)N1CC[C@@H](Nc2n[nH]c3nccc(Oc4cccc(Oc5ccccc5)c4)c23)C1 [compound 12, (2E)-4-(dimethylamino)-1-[(3R)-3-{[4-(3-phenoxyphenoxy)-1H-pyrazolo[3,4-b]pyridin-3-yl]amino}pyrrolidin-1-yl]but-2-en-1-one]",1 to 10,1 to 10,< 0.1
"CN(C/C=C/C(=O)N1CC[C@@H](Nc2n[nH]c3nccc(Oc4ccc(Oc5ccccc5)cc4C#N)c23)C1)C1CC1 [compound 35, 2-[(3-{[(3R)-1-[(2E)-4-[cyclopropyl(methyl)amino]but-2-enoyl]pyrrolidin-3-yl]amino}-1H-pyrazolo[3,4-b]pyridin-4-yl)oxy]-5-phenoxybenzonitrile]",1 to 10,> 10,0.1 to 1
CN(C/C=C/C(=O)N1CCC[C@H]1CNc1n[nH]c2nccc(Oc3ccc(Oc4ccccc4)cc3)c12)C1CC1 [compound 36],< 0.1,1 to 10,< 0.1
NC(=O)c1cc(Nc2n[nH]c3nccc(Oc4ccc(Oc5ccccc5)cc4)c23)ccn1 [compound 59],< 0.1,0.1 to 1,0.1 to 1
"CNC(=O)/C(F)=C/c1cccc(Nc2n[nH]c3nccc(Oc4ccc(Oc5ccccc5)cc4)c23)c1 [compound 31, (2Z)-2-fluoro-N-methyl-3-(3-{[4-(4-phenoxyphenoxy)-1H-pyrazolo[3,4-b]pyridin-3-yl]amino}phenyl)prop-2-enamide]",0.1 to 1,0.1 to 1,0.1 to 1
"COCCC(=O)N1CCC[C@@H](Nc2n[nH]c3nccc(Oc4ccc(C(=O)Nc5cc(C#N)ccn5)cc4)c23)C1 [compound 80, N-(4-cyanopyridin-2-yl)-4-[(3-{[(3R)-1-(3-methoxypropanoyl)piperidin-3-yl]amino}-1H-pyrazolo[3,4-b]pyridin-4-yl)oxy]benzamide]",0.1 to 1,< 0.1,< 0.1
CN(C)C/C=C/C(=O)N1CC[C@@H](Nc2n[nH]c3ncnc(Oc4ccc(Oc5ccccc5)cc4)c23)C1 [compound 39],0.1 to 1,< 0.1,< 0.1
"N#C/C(=C\C1CCC1)C(=O)N1CC[C@@H](Nc2n[nH]c3nccc(Oc4ccc(Oc5ccccc5)cc4)c23)C1 [compound 27, (2E)-3-cyclobutyl-2-[(E)-(3R)-3-{[4-(4-phenoxyphenoxy)-1H-pyrazolo[3,4-b]pyridin-3-yl]amino}pyrrolidine-1-carbonyl]prop-2-enenitrile]",0.1 to 1,0.1 to 1,< 0.1
CN1CC[C@@H](Nc2n[nH]c3nccc(Oc4ccc(Oc5ccccc5)cc4)c23)C1 [compound 45],< 0.1,0.1 to 1,< 0.1
c1ccc(Oc2ccc(Oc3ncnc4[nH]nc(N[C@@H]5CCCNC5)c34)cc2)cc1 [compound 50],,> 10,> 10
CCC(=O)N1CCC[C@@H](N(C(=O)CC)c2n[nH]c3ncnc(Oc4ccc(Oc5ccccc5)cc4)c23)C1 [compound 52],,,0.1 to 1
